Marks after values point to notes of the source that are not given here.
Legend:
GEF [1] = test: GEF-activity in membrane fractions of ECV304 cells (RhoGEF Exchange Assay); assay type: cell-based; conditions: ECV 304, no stimulus, peptide 50 μg/ml
Experimental: (§1) To measure the GEF-inhibitory effect, the following cell lines were used: Caco-2 (epithelial cells from adeno-carcinoma), ECV304 (epithelial cells from bladder carcinoma) and HpMec (endothelial cells, immortalized pulmonary micro-vascular cells). All cells were grown at standard conditions (37° C., 5% CO2 and 95% relative humidity (rH)). Culture Medium used for Caco-2: DMEM+1 mM sodium pyruvate+20% FCS+1% Penicillin Streptomycin; for ECV 304: RPMI 1640+10% FCS+1% Penicillin Streptomycin; and for HpMec: IMDM+25 mM Hepes+10% Human Serum+1% Penicillin Streptomycin+1% L-Glutamine+ECGS/Heparin 2 ml. 4 h before the experiment, cells were starved by serum withdrawal. To induce GEF-activity, cells were stimulated with thrombin, lipopolysaccharide (LPS) or PMA for the indicated time in presence or absence of 50 μg/ml XIB1-a or XIB1-b. After stimulation, membrane fractions were prepared by using the commercial available “Compartemental Protein Extraction Kit” from Biochain institutes. Membrane fractions were prepared according to the manufacturer instructions. GEF-activity in membrane lysates was determined by using “RhoGEF Exchange Assay Biochem Kit” from Cytoskeleton Inc. according to manufacturer instructions. GEF-activity was measured as fluorescence at using the Fluoroskan Ascent FL 2.6 from Thermo Electron Corporation. The excitation Filter wavelength was set at 355 nm and the emission filter wavelength at 460 nm.

GEF [2] = test: GEF-activity in membrane fractions of Caco-2 cells (RhoGEF Exchange Assay); assay type: cell-based; conditions: CaCo-2, no stimulus, peptide 50 μg/ml
Experimental: as §1

GEF [3] = test: GEF-activity in membrane fractions of HpMec cells (RhoGEF Exchange Assay); assay type: cell-based; conditions: HpMec, no stimulus, peptide 50 μg/ml
Experimental: as §1

GTP-bound RhoA [4] = test: GTP-associated active RhoA in ECV304 membrane fraction (western blot); assay type: cell-based; conditions: ECV 304, no stimulus, peptide 50 μg/ml
Experimental: (§2) To measure the GTP-associated active RhoA, the following cell lines were used: Caco-2, ECV304 and HpMec. All cells were grown at standard conditions (37° C., 5% CO2 and 95% rH). 4 h before the experiment, cells were starved by serum withdrawal. To induce GEF-activity, cells were stimulated with thrombin, LPS or PMA for the indicated time in presence or absence of 50 μg/ml XIB1-a or XIB1-b. After stimulation, membrane fractions were prepared by using the commercial available “Compartemental Protein Extraction Kit” from Biochain Institutes. Membrane fractions were prepared according to the manufacturer instructions. The membrane fraction was separated on 15% polyacrylamide gel according to standard procedures of gel electrophoresis. The gels were afterwards blotted on a nitrocellulose membrane according to standard procedures of western blotting. GTP-bound RhoA was detected using RhoA-GTP monoclonal antibody from NewEast Inc. in a dilution of 1:5000. Protein bands were analyzed with the Dolphin-1D Gel analysis system (Wealtec).

GTP-bound RhoA [5] = test: GTP-associated active RhoA in Caco-2 membrane fraction (western blot); assay type: cell-based; conditions: CaCo-2, no stimulus, peptide 50 μg/ml
Experimental: as §2

GTP-bound RhoA [6] = test: GTP-associated active RhoA in HpMec membrane fraction (western blot); assay type: cell-based; conditions: HpMec, no stimulus, peptide 50 μg/ml
Experimental: as §2

[7] = tested on: Phosphorylated Myosin Light Chain (MLC) and actin stress fibers; test: MLC phosphorylation and actin stress fiber formation in ECV304 cells (microscopy score); assay type: cell-based; conditions: ECV 304, no stimulus, peptide 50 μg/ml
Experimental: (§3) To measure MLC phosphorylation and actin stress fiber formation, the following cell lines were used: Caco-2, ECV304 and HpMec. All cells were grown at standard conditions (37° C., 5% CO2 and 95% rH). Culture Medium used: for Caco-2: DMEM+1 mM sodium pyruvate+20% FCS+1% Penicillin Streptomycin; for ECV 304: RPMI 1640+10% FCS+1% Penicillin Streptomycin; and for HpMec: IMDM+25 mM Hepes+10% Human Serum+1% Penicillin Streptomycin+1% L-Glutamine+ECGS/Heparin 2 ml. 4 h before the experiment, cells were starved by serum withdrawal. To induce GEF-activity, cells were stimulated with thrombin, LPS or PMA for the indicated time in presence or absence of 50 μg/ml XIB1-a or XIB1-b. After stimulation, cells were fixed using 4% PFA. Phospho MLC was detected by using the “rabbit anti phosphor-myosin light chain antibody” from Chemicon in a concentration of 3 μl/ml in PBS (Gibco) supplemented with 0.1% Triton X-100. As detection antibody, the Alexa 448 tagged “anti Rabbit IgG Antibody” from Invitrogen was used in a concentration of 0.5 μl/ml in PBS (Gibco) supplemented with 0.1% Triton X-100. Aktin was detected using TRITC-labeled Phalloidin in a concentration of 0.5 μl/ml in PBS (Gibco) supplemented with 0.1% Triton. Stained cells were analyzed by using a Zeiss Laser Scan microscope. Evaluation of the cyto-skeletal activation was performed by 2 independent observers that were blinded to the conditions. Evaluation criteria were set as follows:
(§4) Actin: parallel actin bundles absent=0; distinct bundle formation=1; prominent parallel bundles=2; Phospho-MLC: present at cell poles=0; slight co-localization with actin bundles=1; prominent co-localization with actin bundles=2

[8] = tested on: Phosphorylated Myosin Light Chain (MLC) and actin stress fibers; test: MLC phosphorylation and actin stress fiber formation in Caco-2 cells (microscopy score); assay type: cell-based; conditions: CaCo-2, no stimulus, peptide 50 μg/ml
Experimental: as §3, §4

[9] = tested on: Phosphorylated Myosin Light Chain (MLC) and actin stress fibers; test: MLC phosphorylation and actin stress fiber formation in HpMec cells (microscopy score); assay type: cell-based; conditions: no stimulus, peptide 50 μg/ml
Experimental: as §3, §4

LPS induced lung injury = test: LPS induced lung injury, bronchoalveolar lavage; assay type: in vivo; conditions: mice, n = 20
Experimental: Male C57Bl/6 Mice (Charles River, Germany) were kept at the animal facility of the Medical University of Vienna, feed with standard diet and water was provided ad libitum. All interventions were performed according to the guide lines of AAALAC (Association for Assessment and Accreditation of Laboratory Animal Care). All experiment were approved by the Ethic committee of the Medical University of Vienna. Mice were anesthetized with isoflouran and treated with 100 ng of LPS (E. coli O55:B5, Sigma Aldrich) intranasally. XIB1-a or XIB1-b was applied either intra-peritoneally (2×2 mg/kg) or via inhalation (2×4 mg/kg), first application was performed concomitantly with LPS administration, the second application was performed 1 h after the LPS inhalation.
The trachea was exposed through a midline incision and canulated with a sterile 20-gauge catheter (BD Venflon™, Becton Dickinson Infusion Therapy, Helsingborg, Sweden). Bilateral broncho-alveolar lavage fluid (BALF) was gained by instilling two 0.5 ml aliquots of sterile saline. Approximately 0.9-1 ml BALF was retrieved per mouse. Total cell numbers were counted from each sample using a hemo-cytometer (Türck chamber), BALF differential cell counts were done on cytospin preparations stained with Giemsa. For protein measurements, BALF was diluted 1:2 in buffer containing 300 mM NaCl, 30 mM Tris, 2 mM MgCl2, 2 mM CaCl2, and Pepstatin A, Leupeptin and Aprotinin (all 20 ng/ml; pH 7.4). Protein levels in BALF were measured using the BCA protein kit according to the manufacturer's instructions (Pierce, Rockford, Ill.).
In addition, the same set-up as described above was used for comparing the impact of XIB1-b compared to Bβ15-42 (PLoS ONE (2009), 4(4): e5391), a peptide derived from fibrin having the sequence […] (SEQ ID NO: 41). Bβ15-42 was added in the same manner as XIB1-b. Again, protein content and cell count of BALF was measured.

[10] = 6 h after LPS administration, intratracheal application

Sequence: GGGGGLSRRIP (/note=“Description of artificial sequence variable insert”) [Control Peptide, random peptide used for control purposes, reference compound]
- GEF-activity, relative values compared to unstimulated control (Mean) (GEF [1]; 1 min): 1
- GEF-activity, relative values compared to unstimulated control (Mean) (GEF [1]; 5 min): 1
- GEF-activity, relative values compared to unstimulated control (Mean) (GEF [2]; 1 min): 1
- GEF-activity, relative values compared to unstimulated control (Mean) (GEF [2]; 5 min): 1
- GEF-activity, relative values compared to unstimulated control (Mean) (GEF [3]; 1 min): 1
- GEF-activity, relative values compared to unstimulated control (Mean) (GEF [3]; 5 min): 1
- GTP-bound RhoA, relative values compared to unstimulated control (Mean) (GTP-bound RhoA [4]; 1 min): 1
- GTP-bound RhoA, relative values compared to unstimulated control (Mean) (GTP-bound RhoA [4]; 5 min): 1
- GTP-bound RhoA, relative values compared to unstimulated control (Mean) (GTP-bound RhoA [5]; 1 min): 1
- GTP-bound RhoA, relative values compared to unstimulated control (Mean) (GTP-bound RhoA [5]; 5 min): 1
- GTP-bound RhoA, relative values compared to unstimulated control (Mean) (GTP-bound RhoA [6]; 1 min): 1
- GTP-bound RhoA, relative values compared to unstimulated control (Mean) (GTP-bound RhoA [6]; 5 min): 1
- MLC phosphorylation and actin stress fiber formation, evaluation score (Mean) ([7]; 1 min): 0
- MLC phosphorylation and actin stress fiber formation, evaluation score (Mean) ([7]; 5 min): 0
- MLC phosphorylation and actin stress fiber formation, evaluation score (Mean) ([8]; 1 min): 0
- MLC phosphorylation and actin stress fiber formation, evaluation score (Mean) ([8]; 5 min): 0
- MLC phosphorylation and actin stress fiber formation, evaluation score (Mean) ([9]; 1 min): 0
- MLC phosphorylation and actin stress fiber formation, evaluation score (Mean) ([9]; 5 min): 0
- counts of neutrophils in the BALF (mean +/ SD) (LPS induced lung injury; comparison with Bβ15-42 (Table 6), 6 h after LPS, intraperitoneal application): 91 +/− 33 neutrophils/ml (× 10^3)
- counts of neutrophils in the BALF (mean +/ SD) (LPS induced lung injury; comparison with Bβ15-42 (Table 6), 6 h after LPS, intratracheal plus intraperitoneal application): 94 +/− 30 neutrophils/ml (× 10^3)
- albumine content of BALFs (mean +/ SD) (LPS induced lung injury; comparison with Bβ15-42 (Table 6, last section), 6 h after LPS, intraperitoneal application as printed): 250 ± 25 µg/mL
- counts of neutrophils in the BALF (mean +/ SD) (LPS induced lung injury; 6 h after LPS administration, intraperitoneal application (2×2 mg/kg)): 88 +/− 33 neutrophils/ml (× 10^3)
- albumine content of BALFs (mean +/ SD) (LPS induced lung injury; [10]): 237 ± 32 µg/mL
- counts of neutrophils in the BALF (mean +/ SD) (LPS induced lung injury; [10]): 90 +/− 30 neutrophils/ml (× 10^3)
